Values quoted from earlier work in patent US9445901B2, “Prosthesis with sustained release analgesic” (priority 2003, dated 2016).
Counter-ions that a name gives are not always drawn.

Conditions: man, after injection for caudal, epidural or peripheral nerve block

## CCCCN1CCCCC1C(=O)Nc1c(C)cccc1C (centres unmarked) [Marcaine, bupivacaine hydrochloride]
  decline of blood levels after the peak: decline to insignificant levels during the next three to six hours
  time to peak levels of bupivacaine in the blood: 30 to 45 min
